According to patent publication US10913781B2, “Pepducin design and use” (Tufts Medical Center, Inc., priority 2011, dated 2021):
Peptide text beside a SMILES is read from it. * marks the point of attachment. Palmitoyl = CCCCCCCCCCCCCCCC(=O)*

How the values were obtained:
Format in all cases: cell-based
[1] = test system: CXCR1/CXCR2; experiment: Human neutrophil chemotaxis to IL-8; conditions: 100 nM IL-8
Description: (A) Human neutrophils (n=4 normal volunteers) were analyzed for surface expression of human PAR1, PAR2, and PAR4 by flow cytometry with PAR-specific antibodies. […] Chemotaxis index is the ratio of directed versus random migration over 30 min through a 5-μm pore filter.
P2pal-18S had no effect on PAR1-dependent platelet aggregation (FIG. 5A). Neither P2pal-18S nor P2pal-14GQ caused membrane disruption or apoptosis as assessed by propidium iodide uptake in SW620 cells with up to 30 μM concentrations of pepducin (FIG. 5B).

[2] = biological target: T1, PAR2 (Homo sapiens, UniProt P55085); experiment: Trypsin cleavage of PAR2
T1 sequence (P55085 26-397): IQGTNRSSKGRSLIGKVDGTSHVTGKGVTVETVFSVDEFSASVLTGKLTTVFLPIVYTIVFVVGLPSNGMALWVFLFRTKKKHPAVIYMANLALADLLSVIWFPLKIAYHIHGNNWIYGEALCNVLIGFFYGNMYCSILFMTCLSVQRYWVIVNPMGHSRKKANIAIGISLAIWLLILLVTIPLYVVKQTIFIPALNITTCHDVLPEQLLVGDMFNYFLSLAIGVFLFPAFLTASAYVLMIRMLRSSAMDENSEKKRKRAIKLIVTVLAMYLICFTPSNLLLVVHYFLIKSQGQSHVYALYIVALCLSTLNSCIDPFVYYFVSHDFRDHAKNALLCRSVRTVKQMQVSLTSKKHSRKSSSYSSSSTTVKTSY
From the text: Additionally, we tested whether P2pal-18S inhibited proteolytic cleavage of PAR2 or endocytosis (DeFea K A, et al. (2000) J Cell Biol 148: 1267-81; Roosterman D, et al. (2003) Am J Physiol Cell Physiol 284: C1319-29; Stalheim L, et al. (2005) Mol Pharmacol 67: 78-87). […] Therefore, the P2pal-18S i3 loop pepducin can inhibit PAR2-dependent calcium signaling, PLC-b inositol phosphate formation, and cell migration, but not proteolytic cleavage or endocytosis.

[3] = biological target: T2, PAR4 (Homo sapiens, UniProt Q96RI0); experiment: [3H]-InsP formation in COS7 cells transfected with PAR4; parameters: expressed in transfected cells; host or cells: COS7; conditions: 100 μM AYPGKF, 30 min
T2 sequence (Q96RI0 18-385): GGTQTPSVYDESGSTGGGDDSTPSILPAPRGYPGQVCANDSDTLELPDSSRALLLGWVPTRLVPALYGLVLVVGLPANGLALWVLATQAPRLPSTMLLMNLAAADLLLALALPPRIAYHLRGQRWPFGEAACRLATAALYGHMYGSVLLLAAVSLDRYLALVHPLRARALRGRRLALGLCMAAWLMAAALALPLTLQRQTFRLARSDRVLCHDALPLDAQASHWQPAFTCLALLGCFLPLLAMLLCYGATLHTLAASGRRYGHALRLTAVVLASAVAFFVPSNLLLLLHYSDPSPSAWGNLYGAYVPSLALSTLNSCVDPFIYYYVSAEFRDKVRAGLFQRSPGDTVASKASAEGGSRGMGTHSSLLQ
Description: (A) PAR2 antagonist pepducins P2pal-18S and P2pal-14GQ inhibit calcium flux induced by PAR2 (SLIGRL) (SEQ ID NO:4) but not PAR1 (TFLLRN) (SEQ ID NO:2) agonists. SW620 cells were stably transfected with PAR1 and pretreated for 1 min with various concentrations of P2pal-18S or P2pal-14GQ and then stimulated with 30 μM PAR agonist. […] Cells were stimulated with 1 μM TFLLRN (SEQ ID NO:2), 1 μM SLIGRL (SEQ ID NO:4) or 100 μM AYPGKF (SEQ ID NO:5) and [^3H]-InsP formation measured over 30 min. (C) SW620 cells were treated with the indicated concentrations of P2pal-18S or P2pal-14GQ in the upper well of an 8-μm pore Boyden chamber and allowed to migrate for 18 h towards 10 μM of the PAR2 specific agonist SLIGRL in the lower chamber. The migration to RPMI/0.1% FBS represents random migration. (D) Migration of HEK cells transiently transfected with PAR2 (wild-type, WT), or PAR2-R36A/PAR2-RQ toward chemotactic gradients of 30 nM trypsin in the absence or presence of the indicated concentration of P2pal-18S for 18 h in a transwell apparatus ([…]). Data (n=2-4) are mean±SEM. *, P<0.05 and **, P<0.005.

[4] = biological target: T1, PAR2; experiment: Calcium flux screen for PAR2 pepducin agonist and antagonist activity in SW620 cells; parameters: SW620 colon adenocarcinoma cells that endogenously express PAR2; endogenous in cells; host or cells: SW620 (in A7 the SW620 cells were additionally stably transfected with PAR1); conditions: 3-4 μM and 14-15 μM pepducin
Description: (A) Agonist and antagonist activity of third intracellular (i3) loop PAR2 pepducins (structure shown on top) using calcium flux assays with SW620 colon adenocarcinoma cells that endogenously express PAR2. Each column of three calcium flux traces corresponds to the i3 pepducin sequence shown above. The top row is the agonist activity of 3-4 μM pepducin and the middle row is the agonist activity of 14-15 μM pepducin. […] Final concentration of DMSO vehicle was 0.2%. […] (C) Agonist activity for each pepducin from (A) is reported as initial velocity of calcium flux at 4 μM pepducin (†), or at 14-15 μM pepducin (‡).

[5] = biological target: T3, PAR1 (Homo sapiens, UniProt P25116); experiment: ERK1/2 phosphorylation in A549 cells (thrombin or […]), Western blot; parameters: endogenous in cells; host or cells: A549, HOP62, H1299, H522, H226, HOP92 lung carcinoma lines; conditions: A549 cells; pepducin 0.1-3 μM
T3 sequence (P25116 22-425): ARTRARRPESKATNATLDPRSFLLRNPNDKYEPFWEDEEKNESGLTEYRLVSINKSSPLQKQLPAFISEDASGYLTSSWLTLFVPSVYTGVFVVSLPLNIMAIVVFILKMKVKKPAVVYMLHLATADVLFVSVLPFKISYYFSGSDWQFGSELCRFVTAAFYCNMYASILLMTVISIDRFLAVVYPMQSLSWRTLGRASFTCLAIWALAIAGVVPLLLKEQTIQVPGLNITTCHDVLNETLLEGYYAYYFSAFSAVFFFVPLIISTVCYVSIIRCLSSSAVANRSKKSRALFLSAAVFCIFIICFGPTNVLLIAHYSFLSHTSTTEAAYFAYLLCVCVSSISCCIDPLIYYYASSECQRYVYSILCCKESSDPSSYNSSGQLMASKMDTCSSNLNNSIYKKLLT
Description: FIG. 9 illustrates that differential inhibition of PAR1-ERK activation by i3- and i1-derived PAR1 pepducins. (A-C): Western blots of lysates from A549 cells untreated, or treated with thrombin, SLIGKV (SEQ ID NO:29), or AYPGKF (SEQ ID NO:5). Indicated samples were pretreated with various concentrations (0.1 to 3 μmol/L) of P1pal-7, P1pal-10S, or P1pal-i1-11 before stimulation and immunoblotted with anti-phospho-ERK. (D-F): Quantification of the Western blots in (A-C) were conducted by densitometry and results are expressed relative to maximum (fold max) phosphorylation of pERK.
(B): A549 cells stimulated with 10 μM […] over 2 h. A549 cells pretreated with 0.1 μM P1pal-7 and stimulated with 10 μM […] (SEQ ID NO:30) for 5 min. Total ERK was used as a loading control.
Last, there has been a great deal of interest in understanding the mechanism of PAR1-mediated activation of MAP kinase cascade and PAR1-dependent cellular growth and differentiation, proliferation and gene transcription. […] The effects of i1 versus i3 PAR1 pepducins on ERK1/2 activation were examined in the A549 lung adenocarcinoma cell line. […] Inhibition experiments with a range of pepducin concentrations (0.1-3 μM) were conducted. […] The […] (SEQ ID NO:30) peptide gave a rapid and transient ERK1/2 phosphorylation signal that peaked at 5-15 min after stimulation. […] To determine the specificity of the PAR1 pepducin inhibitors, their effects on the closely related PAR2 and PAR4 receptors were also tested.

Effect on trypsin cleavage of PAR2 [2] | Inhibition of InsP signaling from PAR4 [3] | Effect on thrombin-induced ERK1/2 phosphorylation [5] | SMILES | Antagonist activity, neutrophil chemotaxis, CXCR1/2 IL-8 receptors [1] | Agonist activity (calcium flux) [4]
no effect | do not inhibit | – | CCCCCCCCCCCCCCCC(=O)N[C@@H](CCCNC(=N)N)C(=O)N[C@@H](CO)C(=O)N[C@@H](CO)C(=O)N[C@@H](C)C(=O)N[C@@H](CCSC)C(=O)N[C@@H](CC(=O)O)C(=O)N[C@@H](CCC(=O)O)C(=O)N[C@@H](CC(N)=O)C(=O)N[C@@H](CO)C(=O)N[C@@H](CCC(=O)O)C(=O)N[C@@H](CCCCN)C(=O)N[C@@H](CCCCN)C(=O)N[C@@H](CCCNC(=N)N)C(=O)N[C@@H](CCCCN)C(=O)N[C@@H](CO)C(=O)N[C@@H](C)C(=O)N[C@H](C(=O)N[C@@H](CCCCN)C(N)=O)[C@@H](C)CC [P2pal-18S] | no antagonist activity | no detectable or otherwise significant agonist activity
– | – | no effect | CCCCCCCCCCCCCCCC(=O)N[C@H](C(=O)N[C@@H](CC(C)C)C(=O)N[C@@H](CCCCN)C(=O)N[C@@H](CCSC)C(=O)N[C@@H](CCCCN)C(=O)N[C@H](C(=O)N[C@@H](CCCCN)C(=O)N[C@@H](CCCCN)C(=O)N1CCC[C@H]1C(=O)N[C@@H](C)C(=O)N[C@H](C(N)=O)C(C)C)C(C)C)[C@@H](C)CC [P1pal-i1-11] (Palmitoyl-ILKMKVKKPAV-NH2) | – | –
